# According to patent publication EP0070049A1, “Derivative of acetylsalicylic acid having an analgetic, antipyretic, antiphlogistic and bronchosecretolytic activity” (UNIONE CHIMICA MEDICAMENTI- DIFME-S.p.A., priority 1981, dated 1983):
# Tested on: oedème induit par carraghénine injectée dans la patte de rats
# Assay: Carrageenan-induced rat paw oedema (antiphlogistic activity, Winter et al)
# Assay type: in vivo
# Details: voie orale; for Volume de l'oedème - ml ± d.s. après 3 heures: 3 heures après le traitement oedémigène; for Volume de l'oedème - ml ± d.s. après 6 heures: 6 heures après le traitement oedémigène
# Description: L'activité antiphlogistique de l'acétylsalicylate de 2(o-méthoxy-phénoxy) éthanol a été évaluée en comparaison avec celle de l'acide acétylsalicylique sur la base de la variation de volume de l'oedème induit par carraghénine injectée dans la patte de rats, suivant la technique décrite par Winter et al (Proc. Soc. Exp. Biol. Med., volume III, page 544, 1962). Les résultats de l'élaboration des épreuves sont indiqués dans le Tableau 1, dans lequel le volume de l'oedème est indiqué en millilitres z la déviation standard, et il a été mesuré 3, 4,5 et 6 heures après le traitement oedémigène; la dose de substance est indiquée en milligrammes de substance administrée par voie orale pour chaque kilogramme de poids corporel des rats; les valeurs marquées par * correspondent à une probabilité d'erreur p < 0,05, les valeurs marquées correspondent à une probabilité d'erreur p < 0,01, calculées sur les valeurs des contrôles, et les valeurs indiquées entre parenthèses indiquent l'inhibition en pour-cent calculée par rapport aux contrôles.
structure (smiles),measurement,setting,value
COc1ccccc1OCCOC(=O)c1ccccc1OC(C)=O [acétylsalicylate de 2(o-méthoxy-phénoxy)éthanol],"inhibition en pour-cent calculée par rapport aux contrôles, après 3 heures",100 mg/Kg,"44,0 pour-cent"
same,Volume de l'oedème - ml ± d.s. après 3 heures,100 mg/Kg,"0,380 ± 0,18 ml"
same,"inhibition en pour-cent calculée par rapport aux contrôles, après 4,5 heures","100 mg/Kg, 4,5 heures","45,0 pour-cent"
same,"Volume de l'oedème - ml ± d.s. après 4,5 heures","100 mg/Kg, 4,5 heures après le traitement oedémigène","0,333 ± 0,17 ml"
same,"inhibition en pour-cent calculée par rapport aux contrôles, après 6 heures",100 mg/Kg,"39,0 pour-cent"
same,Volume de l'oedème - ml ± d.s. après 6 heures,100 mg/Kg,"0,291 ± 0,13 ml"
same,"inhibition en pour-cent calculée par rapport aux contrôles, après 3 heures",200 mg/Kg,"70,0 pour-cent"
same,Volume de l'oedème - ml ± d.s. après 3 heures,200 mg/Kg,"0,20 + 0,1 ml"
same,"inhibition en pour-cent calculée par rapport aux contrôles, après 4,5 heures","200 mg/Kg, 4,5 heures","67,0 pour-cent"
same,"Volume de l'oedème - ml ± d.s. après 4,5 heures","200 mg/Kg, 4,5 heures après le traitement oedémigène","0,20 + 0,11 ml"
same,"inhibition en pour-cent calculée par rapport aux contrôles, après 6 heures",200 mg/Kg,"65,0 pour-cent"
same,Volume de l'oedème - ml ± d.s. après 6 heures,200 mg/Kg,"0,16 + 0,1 ml"
